Experimental data published in ChEMBL document CHEMBL4507291 (2021).

What was measured:
[1] = target: RAC-gamma serine/threonine-protein kinase (Homo sapiens) (UniProt Q9Y243)
[2] = target: Citron Rho-interacting kinase (Homo sapiens) (UniProt O14578)
[3] = target: T1, Myotonin-protein kinase (Homo sapiens) (UniProt Q09013)
T1 sequence (whole entry): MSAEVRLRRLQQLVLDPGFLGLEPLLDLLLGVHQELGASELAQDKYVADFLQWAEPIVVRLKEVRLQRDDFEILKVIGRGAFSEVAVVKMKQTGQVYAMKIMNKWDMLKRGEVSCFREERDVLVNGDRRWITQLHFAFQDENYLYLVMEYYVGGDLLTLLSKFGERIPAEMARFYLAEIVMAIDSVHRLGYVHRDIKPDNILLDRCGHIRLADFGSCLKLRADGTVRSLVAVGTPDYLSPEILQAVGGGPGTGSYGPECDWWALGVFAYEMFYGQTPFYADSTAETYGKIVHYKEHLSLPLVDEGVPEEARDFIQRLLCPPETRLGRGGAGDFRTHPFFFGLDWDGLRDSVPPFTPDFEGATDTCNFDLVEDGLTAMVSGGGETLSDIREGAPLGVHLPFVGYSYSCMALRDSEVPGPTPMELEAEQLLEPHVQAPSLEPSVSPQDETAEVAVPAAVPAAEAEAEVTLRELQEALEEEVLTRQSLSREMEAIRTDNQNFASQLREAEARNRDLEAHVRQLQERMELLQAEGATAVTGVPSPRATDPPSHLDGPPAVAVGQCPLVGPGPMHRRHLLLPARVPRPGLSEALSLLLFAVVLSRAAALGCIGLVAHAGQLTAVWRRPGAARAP

[4] = system: Receptor-type tyrosine-protein kinase FLT3 (Homo sapiens), P36888 [D835H]
[5] = target: Glycogen synthase kinase-3 beta (Homo sapiens) (UniProt P49841)
[6] = target: Interleukin-1 receptor-associated kinase 3 (Homo sapiens) (UniProt Q9Y616)
[7] = target: Serine/threonine-protein kinase LATS1 (Homo sapiens) (UniProt O95835)
[8] = target: Serine/threonine-protein kinase MAK (Homo sapiens) (UniProt P20794)
[9] = target: Dual specificity mitogen-activated protein kinase kinase 4 (Homo sapiens) (UniProt P45985)
[10] = target: Misshapen-like kinase 1 (Homo sapiens) (UniProt Q8N4C8)
[11] = target: Myosin light chain kinase, smooth muscle (Homo sapiens) (UniProt Q15746)
[12] = target: Serine/threonine-protein kinase 38 (Homo sapiens) (UniProt Q15208)
[13] = target: T2, Mitogen-activated protein kinase 12 (Homo sapiens) (UniProt P53778)
T2 sequence (whole entry): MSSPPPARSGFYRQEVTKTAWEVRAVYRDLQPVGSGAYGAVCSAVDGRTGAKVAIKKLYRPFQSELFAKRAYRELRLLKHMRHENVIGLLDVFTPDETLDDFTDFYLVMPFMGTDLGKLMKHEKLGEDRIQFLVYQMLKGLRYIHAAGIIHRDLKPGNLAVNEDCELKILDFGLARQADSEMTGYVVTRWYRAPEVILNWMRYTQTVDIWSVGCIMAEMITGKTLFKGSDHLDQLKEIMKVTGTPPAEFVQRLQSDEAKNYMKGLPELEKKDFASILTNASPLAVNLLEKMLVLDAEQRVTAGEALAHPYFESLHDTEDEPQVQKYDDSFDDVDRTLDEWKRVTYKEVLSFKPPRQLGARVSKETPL

[14] = target: Serine/threonine-protein kinase PAK 1 (Homo sapiens) (UniProt Q13153)
[15] = target: Protein kinase C eta type (Homo sapiens) (UniProt P24723)
[16] = target: Proto-oncogene tyrosine-protein kinase Src (Homo sapiens) (UniProt P12931)
[17] = target: High affinity nerve growth factor receptor (Homo sapiens) (UniProt P04629)
[18] = target: BDNF/NT-3 growth factors receptor (Homo sapiens) (UniProt Q16620)
[19] = target: Phosphatidylinositol 3-kinase catalytic subunit type 3 (Homo sapiens) (UniProt Q8NEB9)
[20] = target: Serine/threonine-protein kinase 32C (Homo sapiens) (UniProt Q86UX6)
[21] = target: Histamine H2 receptor (Homo sapiens) (UniProt P25021); settings: Compound concentration 10.0 uM
[22] = target: T3, Muscarinic acetylcholine receptor M4 (Homo sapiens) (UniProt P08173); settings: Compound concentration 10.0 uM
T3 sequence (whole entry): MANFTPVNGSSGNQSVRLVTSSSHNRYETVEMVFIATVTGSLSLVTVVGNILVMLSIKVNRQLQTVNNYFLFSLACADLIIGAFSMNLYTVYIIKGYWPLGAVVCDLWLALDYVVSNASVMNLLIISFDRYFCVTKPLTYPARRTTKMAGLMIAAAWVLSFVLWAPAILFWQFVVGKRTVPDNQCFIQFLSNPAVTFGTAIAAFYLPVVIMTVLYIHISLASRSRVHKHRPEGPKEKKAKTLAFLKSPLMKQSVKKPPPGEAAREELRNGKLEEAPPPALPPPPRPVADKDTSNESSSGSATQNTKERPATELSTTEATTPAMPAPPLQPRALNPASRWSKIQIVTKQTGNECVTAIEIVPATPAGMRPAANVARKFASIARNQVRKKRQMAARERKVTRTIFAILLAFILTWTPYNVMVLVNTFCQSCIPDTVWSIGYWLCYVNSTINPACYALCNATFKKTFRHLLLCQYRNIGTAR

[23] = Compound concentration 100.0 nM
[24] = Compound concentration 1000.0 nM

Sequence of Histamine H2 receptor (Homo sapiens) (P25021 whole entry): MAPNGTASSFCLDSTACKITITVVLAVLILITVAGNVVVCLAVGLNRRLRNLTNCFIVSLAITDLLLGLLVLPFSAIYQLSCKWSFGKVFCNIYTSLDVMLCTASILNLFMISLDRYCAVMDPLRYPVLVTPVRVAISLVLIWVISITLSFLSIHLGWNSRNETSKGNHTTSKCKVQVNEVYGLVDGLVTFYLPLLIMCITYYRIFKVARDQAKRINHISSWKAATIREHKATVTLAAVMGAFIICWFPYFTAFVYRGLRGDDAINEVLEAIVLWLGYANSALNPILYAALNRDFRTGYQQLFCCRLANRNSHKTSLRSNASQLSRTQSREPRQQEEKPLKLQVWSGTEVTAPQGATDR
Sequence of Serine/threonine-protein kinase 32C (Homo sapiens) (Q86UX6 whole entry): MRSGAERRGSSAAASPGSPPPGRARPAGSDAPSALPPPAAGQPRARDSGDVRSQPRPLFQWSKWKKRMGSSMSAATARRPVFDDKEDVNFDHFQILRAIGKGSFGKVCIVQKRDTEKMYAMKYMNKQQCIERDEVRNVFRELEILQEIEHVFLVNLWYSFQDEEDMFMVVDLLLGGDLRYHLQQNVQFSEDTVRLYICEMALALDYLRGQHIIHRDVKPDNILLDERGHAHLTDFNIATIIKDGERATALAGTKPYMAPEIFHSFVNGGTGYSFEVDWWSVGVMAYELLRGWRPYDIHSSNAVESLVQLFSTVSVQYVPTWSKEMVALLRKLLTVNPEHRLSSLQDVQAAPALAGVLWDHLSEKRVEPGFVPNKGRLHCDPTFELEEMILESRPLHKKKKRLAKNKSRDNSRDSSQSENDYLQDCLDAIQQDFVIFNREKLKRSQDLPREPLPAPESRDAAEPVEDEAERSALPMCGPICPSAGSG
Sequence of Serine/threonine-protein kinase LATS1 (Homo sapiens) (O95835 whole entry): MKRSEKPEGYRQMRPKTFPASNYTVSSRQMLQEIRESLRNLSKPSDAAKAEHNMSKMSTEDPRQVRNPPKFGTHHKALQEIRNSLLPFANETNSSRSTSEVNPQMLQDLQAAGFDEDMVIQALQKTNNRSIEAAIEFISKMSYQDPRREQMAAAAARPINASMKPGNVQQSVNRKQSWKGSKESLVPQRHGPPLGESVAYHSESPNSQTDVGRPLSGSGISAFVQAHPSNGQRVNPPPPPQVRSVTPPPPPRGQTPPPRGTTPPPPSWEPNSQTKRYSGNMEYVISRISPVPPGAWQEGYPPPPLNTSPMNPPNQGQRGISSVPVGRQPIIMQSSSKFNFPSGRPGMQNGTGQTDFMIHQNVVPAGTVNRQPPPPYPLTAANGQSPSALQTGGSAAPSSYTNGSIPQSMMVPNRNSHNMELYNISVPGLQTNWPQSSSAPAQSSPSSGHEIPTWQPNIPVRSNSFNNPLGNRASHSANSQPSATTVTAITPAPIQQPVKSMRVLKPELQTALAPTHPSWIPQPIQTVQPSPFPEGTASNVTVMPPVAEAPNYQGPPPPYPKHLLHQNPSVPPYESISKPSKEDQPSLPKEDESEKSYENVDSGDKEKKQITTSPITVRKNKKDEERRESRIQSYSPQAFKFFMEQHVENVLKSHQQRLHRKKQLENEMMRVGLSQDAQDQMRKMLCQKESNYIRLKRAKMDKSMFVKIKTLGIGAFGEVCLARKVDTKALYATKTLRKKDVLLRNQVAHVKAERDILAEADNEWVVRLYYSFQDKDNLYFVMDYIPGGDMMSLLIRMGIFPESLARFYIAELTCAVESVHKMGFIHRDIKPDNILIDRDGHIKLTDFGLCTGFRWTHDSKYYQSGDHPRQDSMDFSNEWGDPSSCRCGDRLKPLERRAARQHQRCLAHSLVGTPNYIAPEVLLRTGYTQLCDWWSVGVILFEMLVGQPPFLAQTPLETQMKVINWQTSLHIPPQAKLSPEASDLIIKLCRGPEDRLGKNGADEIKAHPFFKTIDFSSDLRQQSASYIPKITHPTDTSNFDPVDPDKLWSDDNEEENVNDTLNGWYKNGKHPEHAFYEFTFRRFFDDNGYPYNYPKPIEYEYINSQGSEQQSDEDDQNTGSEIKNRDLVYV
Sequence of Proto-oncogene tyrosine-protein kinase Src (Homo sapiens) (P12931 2-536 limits assumed): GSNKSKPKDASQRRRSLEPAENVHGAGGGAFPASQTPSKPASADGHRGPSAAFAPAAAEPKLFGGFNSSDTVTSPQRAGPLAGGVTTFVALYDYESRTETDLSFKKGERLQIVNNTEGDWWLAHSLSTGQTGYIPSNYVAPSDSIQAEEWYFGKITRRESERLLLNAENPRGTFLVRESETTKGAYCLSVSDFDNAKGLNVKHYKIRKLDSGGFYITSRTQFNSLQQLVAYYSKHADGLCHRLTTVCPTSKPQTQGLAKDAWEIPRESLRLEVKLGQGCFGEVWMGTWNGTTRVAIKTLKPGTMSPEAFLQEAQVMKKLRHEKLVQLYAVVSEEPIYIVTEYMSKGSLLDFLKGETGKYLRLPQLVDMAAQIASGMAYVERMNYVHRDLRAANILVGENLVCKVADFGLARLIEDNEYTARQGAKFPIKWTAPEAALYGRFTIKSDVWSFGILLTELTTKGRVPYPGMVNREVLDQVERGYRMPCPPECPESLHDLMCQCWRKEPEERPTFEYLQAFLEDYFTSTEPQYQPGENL
Sequence of Dual specificity mitogen-activated protein kinase kinase 4 (Homo sapiens) (P45985 whole entry): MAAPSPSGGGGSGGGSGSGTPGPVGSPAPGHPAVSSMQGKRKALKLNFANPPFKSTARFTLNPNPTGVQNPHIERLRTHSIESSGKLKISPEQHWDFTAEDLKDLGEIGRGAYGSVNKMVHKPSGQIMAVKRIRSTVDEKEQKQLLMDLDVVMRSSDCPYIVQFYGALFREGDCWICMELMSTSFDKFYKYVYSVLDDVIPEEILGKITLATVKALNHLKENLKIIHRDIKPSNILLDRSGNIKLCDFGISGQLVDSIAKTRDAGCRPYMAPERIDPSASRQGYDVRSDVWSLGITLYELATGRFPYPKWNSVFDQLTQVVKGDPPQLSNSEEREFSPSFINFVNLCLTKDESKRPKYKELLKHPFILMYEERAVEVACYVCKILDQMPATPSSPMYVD
Sequence of Citron Rho-interacting kinase (Homo sapiens) (O14578 whole entry): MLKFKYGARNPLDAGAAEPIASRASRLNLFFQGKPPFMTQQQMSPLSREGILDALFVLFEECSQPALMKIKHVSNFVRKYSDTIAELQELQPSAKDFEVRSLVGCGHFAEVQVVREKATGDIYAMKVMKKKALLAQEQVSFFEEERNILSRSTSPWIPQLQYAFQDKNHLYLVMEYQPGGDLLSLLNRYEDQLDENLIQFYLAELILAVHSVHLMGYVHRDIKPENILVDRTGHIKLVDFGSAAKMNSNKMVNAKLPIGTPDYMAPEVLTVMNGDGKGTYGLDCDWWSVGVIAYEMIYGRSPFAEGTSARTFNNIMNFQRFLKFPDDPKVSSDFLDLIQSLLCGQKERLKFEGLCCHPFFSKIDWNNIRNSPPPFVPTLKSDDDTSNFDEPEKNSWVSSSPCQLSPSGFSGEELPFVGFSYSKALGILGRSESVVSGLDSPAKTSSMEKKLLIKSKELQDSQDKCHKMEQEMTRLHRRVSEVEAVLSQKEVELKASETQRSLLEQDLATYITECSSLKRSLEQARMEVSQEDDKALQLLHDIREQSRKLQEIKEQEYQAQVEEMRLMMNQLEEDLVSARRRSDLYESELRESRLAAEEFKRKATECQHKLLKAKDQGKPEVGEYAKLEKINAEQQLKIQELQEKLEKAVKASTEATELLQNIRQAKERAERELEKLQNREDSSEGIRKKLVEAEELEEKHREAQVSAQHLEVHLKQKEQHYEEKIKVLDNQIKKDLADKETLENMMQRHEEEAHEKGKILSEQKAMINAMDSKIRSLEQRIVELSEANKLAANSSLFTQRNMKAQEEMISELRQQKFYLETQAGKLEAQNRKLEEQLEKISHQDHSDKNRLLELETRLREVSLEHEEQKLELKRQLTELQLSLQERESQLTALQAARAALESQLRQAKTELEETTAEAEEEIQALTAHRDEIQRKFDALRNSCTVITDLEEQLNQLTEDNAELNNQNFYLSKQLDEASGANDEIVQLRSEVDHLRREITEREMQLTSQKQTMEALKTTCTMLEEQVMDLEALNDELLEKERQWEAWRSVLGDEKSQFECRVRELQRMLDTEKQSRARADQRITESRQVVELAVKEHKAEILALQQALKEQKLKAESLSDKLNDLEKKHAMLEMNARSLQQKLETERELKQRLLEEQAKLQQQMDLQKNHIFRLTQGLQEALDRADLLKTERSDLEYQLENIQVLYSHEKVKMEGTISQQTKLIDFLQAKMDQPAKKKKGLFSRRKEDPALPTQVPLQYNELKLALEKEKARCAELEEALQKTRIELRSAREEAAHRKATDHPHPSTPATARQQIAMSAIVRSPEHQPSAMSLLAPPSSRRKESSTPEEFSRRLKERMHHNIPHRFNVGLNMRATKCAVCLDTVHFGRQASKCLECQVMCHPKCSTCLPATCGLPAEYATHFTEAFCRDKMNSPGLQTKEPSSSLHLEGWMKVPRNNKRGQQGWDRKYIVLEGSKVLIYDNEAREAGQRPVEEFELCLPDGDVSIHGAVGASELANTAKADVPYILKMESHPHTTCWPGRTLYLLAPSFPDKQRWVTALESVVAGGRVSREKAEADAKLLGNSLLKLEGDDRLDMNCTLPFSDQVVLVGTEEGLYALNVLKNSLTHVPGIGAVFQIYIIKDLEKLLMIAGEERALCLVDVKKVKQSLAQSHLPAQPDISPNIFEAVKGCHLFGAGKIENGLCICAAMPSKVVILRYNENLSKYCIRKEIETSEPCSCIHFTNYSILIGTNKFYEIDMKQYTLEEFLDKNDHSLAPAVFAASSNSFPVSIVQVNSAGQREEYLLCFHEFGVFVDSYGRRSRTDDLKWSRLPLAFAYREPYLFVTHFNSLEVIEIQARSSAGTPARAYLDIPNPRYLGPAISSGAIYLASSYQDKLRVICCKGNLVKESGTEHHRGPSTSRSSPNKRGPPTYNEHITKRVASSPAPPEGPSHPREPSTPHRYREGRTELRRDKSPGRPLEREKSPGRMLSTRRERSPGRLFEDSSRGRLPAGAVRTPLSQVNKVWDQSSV

C[C@@H]1CN(c2cc(-c3n[nH]c4ccc(OC5(C)CC5)cc34)ncn2)C[C@H](C)O1 [MLi-2]
inactive: residual activity [1, 23] 86% | residual activity [2, 23] 69% | residual activity [3, 23] 85% | residual activity [4, 23] 100% | residual activity [5, 23] 90% | residual activity [6, 23] 94% | residual activity [7, 23] 96% | residual activity [8, 23] 95% | residual activity [9, 23] 73% | residual activity [10, 23] 84% | residual activity [11, 23] 56% | residual activity [12, 23] 87% | residual activity [13, 23] 96% | residual activity [14, 23] 97% | residual activity [15, 23] 92% | residual activity [16, 23] 81% | residual activity [17, 23] 73% | residual activity [18, 23] 67% | residual activity [19, 23] 100% | residual activity [20, 23] 89% | inhibition [21] 6.26% | inhibition [22] -4.79%

C[C@@H]1CN(c2cc(-c3nn(C)c4ccc(OC5(C)CC5)cc34)ncn2)C[C@H](C)O1 [MLi-2-NC]
inactive: residual activity [1, 24] 100% | residual activity [2, 24] 100% | residual activity [3, 24] 100% | residual activity [4, 24] 84% | residual activity [5, 24] 91% | residual activity [6, 24] 89% | residual activity [7, 24] 100% | residual activity [8, 24] 100% | residual activity [9, 24] 82% | residual activity [10, 24] 66% | residual activity [11, 24] 64% | residual activity [12, 24] 57% | residual activity [13, 24] 100% | residual activity [14, 24] 76% | residual activity [15, 24] 100% | residual activity [16, 24] 100% | residual activity [17, 24] 76% | residual activity [18, 24] 65% | residual activity [19, 24] 86% | residual activity [20, 24] 100% | inhibition [21] 18.4% | inhibition [22] 10.6%
